The test system of data set [1] is human WERI-Rb1 retinoblastoma xenografts (vitreous seeds). Description: rabbit model of retinoblastoma vitreous seeds, intravitreal treatment, quantification of seed burden. The data set is classed as in vivo. Particulars: for reduction in tumor cells / tumor burden compared to saline: 3 weekly intravitreal injections (belinostat 350 μg; melphalan 25 μg), eyes harvested two weeks after final injection. As for the experimental part: (§1) For the first small animal IAC model developed by the inventors and referenced above, the rabbit's dominant ophthalmic artery was endovascularly cannulated, and each drug was injected at various doses. For intravitreal experiments, 1-3 weekly injections of each drug were performed. For the assessment of ocular toxicity described above, the testing platform the inventors developed included a broad array of tests including assessment of retinal structure and function by electroretinography, photography, fluorescein angiography, OCT, and OCT-Angiography, both before and after treatment. Human WERI-Rb1 retinoblastoma xenografts were treated with either intravenous, intra-arterial, or intravitreal chemotherapy. Assessment of efficacy against vitreous seeds was by both direct quantification of seed burden (vitreous harvesting and cell counting) and by assessment of apoptosis induction by immunohistochemistry.
To determine efficacy and toxicity of intravitreal HDAC inhibitors for retinoblastoma treatment, vitreous seeds were generated in cyclosporine-immunosuppressed rabbits. 1,000,000 human WERI-Rb1 human retinoblastoma cells were injected into each eye. The seeds were allowed to grow for two weeks to form the types of “spherules” seen clinically with vitreous seeds. 350 μg belinostat injections were used (equivalent to approximately 700 μg in a human-sized eye). The right eye was injected with belinostat three times, weekly. The left eye was injected with saline three times, weekly. The eyes were harvested for analysis two weeks after the final injection, and subjected to the cell quantification and apoptosis induction assays described in the above paragraph.
To compare the efficacy of an embodiment of the present invention with melphalan treatment, rabbit eyes were treated with 3 weekly injections of 350 μg belinostat by local (intravitreal) injection as described above. The melphalan comparator group received 3 weekly injections of 25 μg melphalan (the clinically-used dose) by intravitreal injection. Eyes were harvested two weeks after the final injection. […]

Data set [2] has as its system rabbit eye (retinal function). Description: retinal function by electroretinography after intravitreal injections. It is filed as in vivo. As for the experimental part: as §1
We next wanted to use the toxicity assessment platform that we have developed previously (described above) to compare the toxicity of belinostat (in accordance with the present invention) to current standard-of-care melphalan. As with the efficacy experiments, rabbits received either 3 injections (weekly) of belinostat 350 μg (the effective dose in our rabbit model), or else belinostat 700 μg (double the clinically-effective dose in our rabbit model), or else melphalan 25 μg (the current, clinically-used dose).

The subject of data set [3] is rabbit eye (retina). As to the kind of experiment: retinal histopathology after intravitreal injections. It is filed as in vivo. As to conditions: 3 weekly intravitreal injections; belinostat 350 μg or 700 μg; melphalan 25 μg. As for the experimental part: as §1
The retina looks just as healthy as the saline-treated control eye.

Data set [4] concerns human retinoblastoma cells. Description: killing of human retinoblastoma cells in cell culture. As to conditions: for killing of human retinoblastoma cells by a brief pulse of HDAC inhibitor: brief pulse exposure, multiple concentrations. It is filed as cell-based. As for the experimental part:
(§2) The present inventors have additionally determined the pharmacokinetics of belinostat when injected directly into the vitreous of the rabbit eye and have calculated its intraocular half-life in vivo. […] Specifically, once the PK curve of intravitreally-injected belinostat was determined and the half-life calculated, human retinoblastoma cells were incubated in cell culture in media containing varying concentrations of belinostat for a length of time equivalent to 5 intraocular half-lives, the media was then replaced with belinostat-free media and incubated for 7 days, and the number of surviving cells was then determined. Then, as an example, the present inventors back-calculated the initial intravitreal injection dose that would ensure that a concentration equal to or above the in vitro IC90 would be achieved even out to 5 half-lives, in vivo.

A short description of data set [5]: intraocular pharmacokinetics after local administration. The data set is classed as in vivo, rabbit. Particulars: local administration routes (intravitreal, intra-arterial). As for the experimental part:
as §2

The conditions of data set [6]: intra-arterial melphalan, patients; cited from earlier work.

“Also recorded” adds a separate entry of the source.

Regarding `O=C(/C=C/c1cccc(S(=O)(=O)Nc2ccccc2)c1)NO` [belinostat, N hydroxy-3-(3-phenylsulfamoyl-phenyl)-acrylamide], in data set [1] (350 μg belinostat intravitreal, three times weekly, vs saline-treated left eye), the “response of vitreous tumor seeds (photographs, FIG. 1)” value is given as “eradication of retinoblastoma vitreous seeds”. The “reduction in tumor cells / tumor burden compared to saline” value in data set [1] stood at 95%. Besides, the “ERG parameters (retinal function)” value in data set [2] (intravitreal belinostat 700 μg (double the clinically-effective dose), 3 weekly injections) is on record as “only mild worsening of ERG parameters”. Further, in data set [2] (rabbit, in vivo), the “retinal functional loss and toxicity (A wave and B wave amplitude, FIG. 3)” value is given as “(absence of) retinal functional loss”; the “retinal toxicity or structural damage” value is given as “no such retinal toxicity or structural damage”. Also, the “retinal architecture on histopathology” value in data set [3] is “retained normal retinal architecture and healthy-appearing retina; also recorded: no evidence of retinal degeneration”. Further, the “killing of human retinoblastoma cells by a brief pulse of HDAC inhibitor” value (from here on “killing … of HDAC inhibitor”) in data set [4] is given as “can be killed by exposure to a brief pulse”. Also, in data set [4] (in vitro), the “killing of human retinoblastoma cells in vitro” value is “effective for killing human retinoblastoma cells in vitro”. Besides, in data set [5], the intraocular concentrations entry was “very high intraocular concentrations, but of very brief duration”.

As for `Nc1ccccc1NC(=O)c1ccc(CNC(=O)OCc2cccnc2)cc1` [etinostat], the “killing … of HDAC inhibitor” value in data set [4] is on record as “can be killed by exposure to a brief pulse”.

Regarding `N[C@@H](Cc1ccc(N(CCCl)CCCl)cc1)C(=O)O` [melphalan], the “reduction in tumor cells / tumor burden compared to saline” value in data set [1] stood at 93%. Besides, the “retinal toxicity or structural damage” value in data set [2] (intravitreal injection, dose not given) is reported as “retinal structural damage”. Besides, the “reduction in measured retinal function (electroretinography amplitudes)” value in data set [2] (intravitreal melphalan 25 μg, 3 weekly injections, across all parameters measured) is 66-90%. Further, the “retinal architecture on histopathology” value in data set [3] is given as “severe atrophy of the retina; also recorded: evidence of retinal degeneration”. Moreover, the rates of complications in data set [6] is about 40%.

Take `Cc1[nH]c2ccccc2c1CCNCc1ccc(/C=C/C(=O)NO)cc1` [panobinostat]: the “killing … of HDAC inhibitor” value in data set [4] is “can be killed by exposure to a brief pulse”.

The record behind these values is US20220008365A1, “Treating Intraocular Retinoblastoma with Inhibitors of Histone Modification” (Vanderbilt University, priority 2018, published 2022).
